Measured values taken from article PMC9027532, “Preclinical Pharmacokinetic Studies of a Novel Diuretic Inhibiting Urea Transporters” (Molecules, 2022).

Legend:
[1] = tested on: SD rats; test: PK-PD study: urine output increment (diuresis) in rats; type: in vivo, Sprague-Dawley rats
[2] = Plasma protein binding by equilibrium dialysis, human plasma; type: in vitro ADME; conditions: human, plasma
Protocol: (§1) The plasma protein binding (PPB) and blood plasma ratio (BPR) are crucial parameters influencing the drug distribution and elimination in plasma. The PPB profile of 25a was evaluated by equilibrium dialysis, a classic method to assess the interactions of small molecules with proteins. The PPB of 25a was tested at 50, 500, and 2500 ng/mL (Table 7). […] When considering the allometric scaling of PK parameters, the species difference of protein binding between humans and rats should be considered.
(§2) The plasma protein binding (PPB) ratio of 25a was assessed via equilibrium dialysis in SD rats and human plasma. Four hundred microliters of plasma containing 50, 500, or 2500 ng/mL 25a were loaded into the dialysis bags (plasma side), and the bags were placed into tubes containing 4 mL of the dialysis buffer (buffer side). The tubes were then rotated at approximately 100 rpm in a humidified incubator with 5% CO2 at 37 ± 1 °C for 5 h.
(§3) After the 5 h dialysis, aliquots of 50 μL samples were taken from both the buffer and the plasma sides. An equal volume of the opposite blank matrix (buffer or plasma) was added to each sample to reach a final volume of 100 μL with a volume ratio of plasma to dialysis buffer at 1:1 (v/v). All samples were further processed by adding 600 μL of stop solution (containing 10 ng/mL IS) to precipitate protein for LC–MS/MS analysis. The PPB ratio (%) was calculated by PPB% = 100% × (1 − Conc.buffer side/Conc.plasma side).

[3] = tested on: plasma protein; test: as above; type: in vitro ADME; conditions: human plasma, 50, 500, 2500 ng/mL
Protocol: as §1, §2, §3

[4] = Stability of 25a in rat plasma, urine, feces and bile under storage conditions; type: in vitro ADME
Protocol: The stability profiles of 25a in the given matrices stored under different conditions (4 °C for 24 h, 25 °C for 4 h, three freeze–thaw cycles, and −80 °C for 30 days) are shown in Table 5.
The accuracy and precision were evaluated by calculating the intraday and interday RE and CV of the QC samples. The RE should be within ±15% of the theoretical concentrations (3, 100, and 800 ng/mL). The CV values should be no more than 15%. For the LLOQ, the cutoff values of RE and CV were 100% ± 20% and <20%. The stability of 25a in the biological matrices (rat plasma, urine, fecal homogenate, and bile) was assessed at 3, 100, and 800 ng/mL (n = 6) under different storage conditions, which included storage at room temperature for 4 h, storage at 4 °C for 24 h, three freeze–thaw cycles, and storage at −80 °C for 30 days.

[5] = tested on: mice; design: method as in PMID 34601246; conditions: orally administered; cited from earlier work

## CC(=O)Nc1ccc(NC(=O)c2ccc(C(C)=O)o2)cc1 [Compound 25a, N-(4-acetamidophenyl)-5-acetylfuran-2-carboxamide]
[1]; p.o. 25 mg/kg
  urine output increment per 12 h (diuresis): 0.5 ± 0.2 mL
[1]; p.o. 50 mg/kg
  urine output increment per 12 h (diuresis): 1.6 ± 0.8 mL
[1]; p.o. 100 mg/kg
  urine output increment per 12 h (diuresis): 2.7 ± 0.9 mL
[2]; human plasma, 50 ng/mL
  fraction unbound at 5 h, 50 ng/mL: 0.559
[2]; human plasma, 500 ng/mL
  fraction unbound at 5 h, 500 ng/mL: 0.612
[2]; human plasma, 2500 ng/mL
  fraction unbound at 5 h, 2500 ng/mL: 0.595
[2]; human plasma, 50, 500, 2500 ng/mL, read-out: mean plasma protein binding (PPB) (converted)
  fraction unbound at 5 h: ~0.6
[3]
  mean plasma protein binding (PPB): 38.8%–44.1%
[4]; rat bile, HQC 800 ng/mL, 4 °C for 24 h
  Stability RE: −7.1%
[4]; rat bile, HQC 800 ng/mL, 25 °C for 4 h
  Stability RE: −7.8%
[4]; rat bile, HQC 800 ng/mL, three freeze–thaw cycles
  Stability RE: −12.2%
[4]; rat bile, HQC 800 ng/mL, −80 °C for 30 days
  Stability RE: −7.1%
[4]; rat bile, LQC 3 ng/mL, 4 °C for 24 h
  Stability RE: −14.7%
[4]; rat bile, LQC 3 ng/mL, 25 °C for 4 h
  Stability RE: −14.9%
[4]; rat bile, LQC 3 ng/mL, three freeze–thaw cycles
  Stability RE: −5.8%
[4]; rat bile, LQC 3 ng/mL, −80 °C for 30 days
  Stability RE: −2.1%
[4]; rat bile, MQC 100 ng/mL, 4 °C for 24 h
  Stability RE: −3.9%
[4]; rat bile, MQC 100 ng/mL, 25 °C for 4 h
  Stability RE: −5.1%
[4]; rat bile, MQC 100 ng/mL, three freeze–thaw cycles
  Stability RE: −5.2%
[4]; rat bile, MQC 100 ng/mL, −80 °C for 30 days
  Stability RE: −3.9%
[4]; rat feces, HQC 800 ng/mL, 4 °C for 24 h
  Stability RE: −5.3%
[4]; rat feces, HQC 800 ng/mL, 25 °C for 4 h
  Stability RE: −2.4%
[4]; rat feces, HQC 800 ng/mL, three freeze–thaw cycles
  Stability RE: −9.1%
[4]; rat feces, HQC 800 ng/mL, −80 °C for 30 days
  Stability RE: −5.3%
[4]; rat feces, LQC 3 ng/mL, 4 °C for 24 h
  Stability RE: 3.9%
[4]; rat feces, LQC 3 ng/mL, 25 °C for 4 h
  Stability RE: −5.2%
[4]; rat feces, LQC 3 ng/mL, three freeze–thaw cycles
  Stability RE: −5.2%
[4]; rat feces, LQC 3 ng/mL, −80 °C for 30 days
  Stability RE: 1.2%
[4]; rat feces, MQC 100 ng/mL, 4 °C for 24 h
  Stability RE: 4.8%
[4]; rat feces, MQC 100 ng/mL, 25 °C for 4 h
  Stability RE: 1.3%
[4]; rat feces, MQC 100 ng/mL, three freeze–thaw cycles
  Stability RE: −3.2%
[4]; rat feces, MQC 100 ng/mL, −80 °C for 30 days
  Stability RE: 4.8%
[4]; rat plasma, HQC 800 ng/mL, 4 °C for 24 h
  Stability RE: −4.5%
[4]; rat plasma, HQC 800 ng/mL, 25 °C for 4 h
  Stability RE: −3.1%
[4]; rat plasma, HQC 800 ng/mL, three freeze–thaw cycles
  Stability RE: −7.6%
[4]; rat plasma, HQC 800 ng/mL, −80 °C for 30 days
  Stability RE: −4.5%
[4]; rat plasma, LQC 3 ng/mL, 4 °C for 24 h
  Stability RE: 2.8%
[4]; rat plasma, LQC 3 ng/mL, 25 °C for 4 h
  Stability RE: −4.9%
[4]; rat plasma, LQC 3 ng/mL, three freeze–thaw cycles
  Stability RE: −3.6%
[4]; rat plasma, LQC 3 ng/mL, −80 °C for 30 days
  Stability RE: 1.1%
[4]; rat plasma, MQC 100 ng/mL, 4 °C for 24 h
  Stability RE: 3.7%
[4]; rat plasma, MQC 100 ng/mL, 25 °C for 4 h
  Stability RE: −2.5%
[4]; rat plasma, MQC 100 ng/mL, three freeze–thaw cycles
  Stability RE: −4.0%
[4]; rat plasma, MQC 100 ng/mL, −80 °C for 30 days
  Stability RE: 3.7%
[4]; rat plasma, urine, feces, bile, 4 °C 24 h, 25 °C 4 h, three freeze–thaw cycles, −80 °C 30 days
  stability during sample preparation and storage: stable
[4]; rat urine, HQC 800 ng/mL, 4 °C for 24 h
  Stability RE: −2.3%
[4]; rat urine, HQC 800 ng/mL, 25 °C for 4 h
  Stability RE: −2.3%
[4]; rat urine, HQC 800 ng/mL, three freeze–thaw cycles
  Stability RE: −1.5%
[4]; rat urine, HQC 800 ng/mL, −80 °C for 30 days
  Stability RE: −2.3%
[4]; rat urine, LQC 3 ng/mL, 4 °C for 24 h
  Stability RE: −8.3%
[4]; rat urine, LQC 3 ng/mL, 25 °C for 4 h
  Stability RE: 3.2%
[4]; rat urine, LQC 3 ng/mL, three freeze–thaw cycles
  Stability RE: 5.8%
[4]; rat urine, LQC 3 ng/mL, −80 °C for 30 days
  Stability RE: 6.2%
[4]; rat urine, MQC 100 ng/mL, 4 °C for 24 h
  Stability RE: 2.5%
[4]; rat urine, MQC 100 ng/mL, 25 °C for 4 h
  Stability RE: 4.3%
[4]; rat urine, MQC 100 ng/mL, three freeze–thaw cycles
  Stability RE: −5.2%
[4]; rat urine, MQC 100 ng/mL, −80 °C for 30 days
  Stability RE: 2.5%
[5]
  Na+, K+, and Cl− levels in the blood: without disturbing
  duration of urea-selective diuresis: 8 h
  urine output vs vehicle control: three times higher urine output than vehicle control
